How the values were obtained:
Swiss albino mice [1] = conditions: mouse, in vivo
Description: After 14 days, the complete blood count (CBC) was performed on blood and plasma was carefully collected and LFTs, RFTs, glucose, total protein and cholesterol were analyzed.

[2] = system: breast cancer (MDA-MB-231) cell line; assay: Cytotoxic synergism study, MTT assay; conditions: MDA-MB-231, MTT, 24 h
Description: The cells were seeded in 96-well plate having 6000 cells/well in fetal bovine serum supplemented Dulbecco’s Modified Eagles Medium (DMEM/FBS) solution. […] Untreated cells with 100% viability were taken as control and the cells without addition of MTT were used as blank to calibrate the instrument. IC50 values for each formulation was calculated using Graphpad Prism 6.02 software[19].

[3] = Oral bioavailability and pharmacokinetics; format: in vivo, rabbits; conditions: rabbit
Description: All the animal studies were conducted in compliance to the approved protocol of Bio-Ethical Committee of Quaid-i-Azam University Islamabad, Pakistan (Protocol No. BEC-FBS-QAU-20). Oral bioavailability studies of NCs were conducted in rabbits. The rabbits were divided into 3 groups (n=5) and kept in the animal house with free access to food and water. […] The samples (10mg/kg) were orally administered through gavage needle. Blood samples were withdrawn from ear marginal vein of each rabbit at predefined time interval using 1 ml sterile syringe each time. The plasma was separated from blood samples and stored at -20 °C till further used for analysis.^7,8 The drug was extracted from plasma samples and was analyzed using HPLC method described earlier.

Swiss albino mice [4] = conditions: mouse, in vivo, po, 10 mg/kg
Description: (§1) Female Swiss albino mice weighing 32 ± 5 g, were divided into 4 groups (n = 5) and were kept to free access of food and water at controlled environment. […] The dose (10 mg/kg) was administered orally through gavage. […] After 14 days, the blood was withdrawn for serum biochemistry analysis and mice were sacrificed for tissue histology studies[49].

[5] = In vitro DTX release and release model fitting; format: physicochemical
Excerpt: Error bar represents Mean ± S.D. of three experiments.
To further probe into the release mechanism, different mathematical models were applied to the dissolution data.

[6] = Biocompatibility, trypan blue assay; format: cell-based; conditions: fresh human macrophages isolated from blood
Description: The biocompatibility of the NCs and DTX-Ag-NCPs was assessed against the fresh human macrophages. The macrophages were isolated from fresh human blood using Ficoll-Gastrografin gradient method.^6 Macrophages were suspended in RPMI media and incubated in CO2 incubator.

Swiss albino mice [7] = assay: Acute oral toxicity (OECD 425), observation; conditions: 10 mg/kg, 14 days
Description: as §1

[8] = rabbit, in vivo, cited from earlier work
[9] = model fitted to dissolution data

## CC(=O)O[C@@]12CO[C@@H]1C[C@H](O)[C@@]1(C)C(=O)[C@H](O)C3=C(C)[C@@H](OC(=O)[C@H](O)[C@@H](NC(=O)OC(C)(C)C)c4ccccc4)C[C@@](O)([C@@H](OC(=O)c4ccccc4)[C@H]21)C3(C)C [DTX, Docetaxel]
Swiss albino mice [1]
  Hb: 13.20 ± 6.37
  MCH: 15.54 ± 4.35
  MCV: 57.57 ± 5.52
  MPV: 7.11 ± 4.91
  PCV: 54.37 ± 11.93
  Platelets: 632 ± 87.57
  RBC: 6.86 ± 4.91
  RDW %: 16.92 ± 6.63%
  Serum glutamic pyruvic transaminase (SGPT): highest level
  WBC: 12.45 ± 7.63
[2]
  IC50: 14.32 µg/mL
[3]; plasma, 10 mg/kg
  Cmax: 41.8 ng/mL
  Tmax: 5 h
[3]; plasma, 10 mg/kg, read-out: AUC0–24
  AUC(0-t): 441 ng·h/mL
[3]; plasma, 10 mg/kg, read-out: MRT0-inf_obs
  MRT inf: 26.2 h
[3]; 10 mg/kg
  AUMC0-inf_obs: 19100.51 ng/ml*h^2
  Cl/F_obs: 0.014 (mg)/(ng/ml)/h
[3]; 10 mg/kg, plasma
  t1/2: 18.039 h
[3]; MEC 35 ng/mL
  Time plasma level remained above minimum effective concentration / within therapeutic window: 3 h
[3]; plasma, po, 10 mg/kg
  half-life: 18 h
[3]; relative to DTX control
  F: 1
Swiss albino mice [4]
  Visible changes in skin, fur or behavioral pattern: no visible changes
[5]; 24 h, phosphate buffer, 37 °C
  Cumulative DTX release: about 53%
[5]; [9]
  Higuchi KH: 10.98
  Hixon-Crowell KHC: 0.01
  Korsmeyer-Peppas N (release exponent): 0.56
  Zero Order Ko: 3.06
[6]
  viability at 24 h, 50 µg/ml: ~65%
Swiss albino mice [7]
  Mortality and change in body weights: No mortality and significant change in body weights
[8]; iv
  Minimum toxic concentration: 2700 ng/mL
[8]
  Minimum effective concentration: 35 ng/mL
